Results taken from patent US11746116B2, “Antibiotic resistance breakers” (KING'S COLLEGE LONDON, priority 2017, dated 2023).
Values after ≈ are worked out from the molar mass of the structure shown. Where two headings read alike, the source gives them in different places.

What was measured:
[1] = tested on: Ab17978; assay: MIC, microdilution broth method; format: cell-based
[2] = tested on: PA01; assay: MIC, microdilution broth method; format: cell-based, Pseudomonas aeruginosa
[3] = tested on: MSSA9144; assay: MIC, microdilution broth method; format: cell-based, Staphylococcus aureus
[4] = tested on: VSE775; assay: MIC, microdilution broth method; format: cell-based, Enterococcus faecalis; parameters: MIC, VSE775: unit not given beside the values
[5] = tested on: VRE12204; assay: MIC, microdilution broth method; format: cell-based, Enterococcus faecium; conditions: in µg/mL
[6] = tested on: SA2; assay: MIC, extended Gram-positive panel; format: cell-based, S. aureus; conditions: S. aureus SA2
[7] = tested on: UKA7; assay: MIC, A. baumannii extended panel; format: cell-based
[8] = tested on: UKA10; assay: MIC, A. baumannii extended panel; format: cell-based
[9] = tested on: UKA12; assay: MIC, A. baumannii extended panel; format: cell-based
[10] = tested on: 13423; assay: MIC, A. baumannii extended panel; format: cell-based; conditions: A. baumannii 13423
[11] = tested on: UKA13; assay: MIC, A. baumannii extended panel; format: cell-based
[12] = tested on: 12156; assay: MIC, A. baumannii extended panel; format: cell-based; conditions: A. baumannii 12156
[13] = tested on: KP13368; assay: MIC, microdilution broth method; format: cell-based
[14] = tested on: M6; assay: MIC, microdilution broth method; format: cell-based
[15] = tested on: AYE; assay: MIC, microdilution broth method; format: cell-based, Acinetobacter baumannii
[16] = tested on: PA13437; assay: MIC, microdilution broth method; format: cell-based; conditions: ESKAPE panel, Gram-negative
[17] = tested on: EC12923; assay: MIC, microdilution broth method; format: cell-based
[18] = tested on: EMRSA15; assay: MIC, microdilution broth method; format: cell-based, Staphylococcus aureus; conditions: for MIC, EMRSA15: in µg/mL; for MIC: Staphylococcus aureus, Staphylococcus aureus (EMRSA15), read-out: MIC
[19] = tested on: EMRSA16; assay: MIC, microdilution broth method; format: cell-based, Staphylococcus aureus; conditions: for MIC, EMRSA16: in µg/mL
[20] = tested on: VRE12201; assay: MIC, microdilution broth method; format: cell-based, Enterococcus faecalis
[21] = tested on: multidrug resistant strains; assay: Reserpine growth assay in several multidrug resistant strains (FIG. 27); format: cell-based; conditions: compared to ML-83-009 or levofloxacin
Description: Reserpine was added at a final concentration of 10 μg/mL (made up at 40 μg/mL in TSB, 50 μL per well). The bacteria were added at an OD of 0.01 in TSB (100 μL/well). The plate was a normal clear plate as used for MICs. OD was read every 30 minutes for 9 hours (the literature states 7 hours, but this is strain-dependent).

[22] = tested on: extended panel of MDR strains with known multiple target mutations; format: cell-based
[23] = ESKAPE panel, Gram-negative, in µg/mL
[24] = ESKAPE panel, Gram-positive, in µg/mL

O=C(O)c1cn(C2CC2)c2cc(N3CCNCC3)c(F)cc2c1=O [Ciprofloxacin, ciprofloxacin, reference compound]
MIC ([1]; Ab17978, Normal (no PMBN), in µg/mL): 0.25 | MIC ([2]; PA01, Normal (no PMBN), in µg/mL): 0.25 | MIC ([3]; MSSA9144, in µg/mL): 0.25 | MIC ([4]; VSE775, in µg/mL): 1 | MIC ([5]; VRE12204): 1 | MIC [6]: 1 mg/L (≈ 3.02 µM) | MIC [7]: > 512 mg/L | MIC [8]: 256 mg/L (≈ 773 µM) | MIC [9]: 512 mg/L (≈ 1550 µM) | MIC [10]: 256 mg/L (≈ 773 µM) | MIC [11]: 512 mg/L (≈ 1550 µM) | MIC [12]: 1 mg/L (≈ 3.02 µM)

C[C@H]1COc2c(N3CC[C@@H](Nc4ncccn4)C3)c(F)cc3c(=O)c(C(=O)O)cn1c23 [KSN-L22]
MIC, KP13368 ([13]; ESKAPE panel, Gram-negative): 4 mg/L (≈ 9.4 µM) | MIC ([13]; Klebsiella pneumoniae (KP13368), Gram-Negative, read-out: MIC): 4 mg/L (≈ 9.4 µM) | MIC, M6 [14, 23]: 1 | MIC ([14]; Klebsiella pneumoniae (M6), Gram-Negative, read-out: MIC): 1 mg/L (≈ 2.35 µM) | MIC ([15]; Acinetobacter baumannii (AYE), Gram-Negative, read-out: MIC): 4 mg/L (≈ 9.4 µM) | MIC, AYE [15, 23]: 4 | MIC ([1]; Acinetobacter baumannii): 0.125 mg/L (≈ 0.294 µM) | MIC, Ab17978 [1, 23]: 0.125 | MIC, PA01 [2, 23]: 4 | MIC ([2]; Pseudomonas aeruginosa (PA01), Gram-Negative, read-out: MIC): 4 mg/L (≈ 9.4 µM) | MIC, PA13437 [16]: > 32 mg/L | MIC, EC12923 [17, 23]: 0.5 | MIC ([17]; Escherichia coli (EC12923), Gram-Negative, read-out: MIC): 0.5 mg/L (≈ 1.18 µM) | MIC, MSSA9144 [3, 24]: ≤0.03 | MIC ([3]; Staphylococcus aureus (MSSA9144), Gram-Positive, read-out: MIC): ≤ 0.03 mg/L | MIC, EMRSA15 ([18]; EMRSA15 (Table 16, role of the terminal pyrimidine ring)): 0.5-1 | MIC, EMRSA15 ([18]; ESKAPE panel, Gram-positive): 0.5 | MIC ([18]; Gram-Positive (Table 14)): 0.5 mg/L (≈ 1.18 µM) | MIC ([18]; Table 12): 0.5 to 1 mg/L (≈ 1.18 to 2.35 µM) | MIC, EMRSA16 ([19]; EMRSA16 (Table 16, role of the terminal pyrimidine ring)): 1 | MIC, EMRSA16 ([19]; ESKAPE panel, Gram-positive): 1 | MIC ([19]; S. aureus EMRSA16, gyrA, 84:S => L, grlA, 80:S => F (Table 11)): 1 | MIC ([19]; Staphylococcus aureus (EMRSA16), Gram-Positive (Table 14)): 1 µg/mL (≈ 2.35 µM) | MIC ([19]; Staphylococcus aureus (EMRSA16), Table 12, read-out: MIC): 1 µg/mL (≈ 2.35 µM) | MIC, VSE775 ([4]; ESKAPE panel, Gram-positive): 0.06 | MIC ([4]; Enterococcus faecalis, Enterococcus (VRE775), Gram-Positive, read-out: MIC): 0.06 mg/L (≈ 0.141 µM) | MIC, VRE12201 [20, 24]: 0.06 | MIC ([20]; Enterococcus faecalis, Enterococcus (VRE12201), Gram-Positive, read-out: MIC): 0.06 mg/L (≈ 0.141 µM) | MIC, VRE12204 ([5]; ESKAPE panel, Gram-positive): 1 | efflux from the bacteria (reserpine growth assay) [21]: reduced efflux | MIC ([22]; E. faecalis EF 602): 0.25 mg/L (≈ 0.588 µM) | MIC ([22]; E. faecium EF 205): 0.12 mg/L (≈ 0.282 µM) | MIC ([22]; S. aureus SA 046, gyrA, 84:S => L, grlA, 80:S => F): 1 mg/L (≈ 2.35 µM) | MIC ([22]; S. aureus SA 105, gyrA, 84:S => L, grlA, 80:S => F): 1 mg/L (≈ 2.35 µM) | MIC ([22]; S. aureus SA 215, gyrA, 84:S => L, grlA, 80:S => F): 1 mg/L (≈ 2.35 µM) | MIC ([22]; S. aureus SA 275, gyrA, 84:S => V, grlA, 80:S => F): 1 mg/L (≈ 2.35 µM) | MIC ([22]; S. aureus SA 318, gyrA, 84:S => L, grlA, 80:S => F): 1 mg/L (≈ 2.35 µM) | MIC ([22]; S. aureus SA 388, gyrA, 84:S => L, grlA, 80:S => F): 1 mg/L (≈ 2.35 µM)
